For this data set the following is noted: Crystal; DTA.

Numbers after ± are expanded uncertainties.

Regarding `C=CC(=O)N1CCC[C@@H](n2nc(-c3ccc(Oc4ccccc4)cc3)c3c(N)ncnc32)C1` [Ibrutinib], the Normal melting temperature stood at 153.13 ± 1.1 °C.

The values above are taken from the NIST ThermoML archive (doi:10.1016/j.jct.2016.08.034).
